The source made the active and inactive calls. No cut-off for these calls is given here.

Assay [1] deals with MOLM-13. In words: Antiproliferative activity against human MOLM-13 cells incubated for 6 days by CellTiter-Glo assay. The conditions noted are these: MOLM-13, 144 h. It counts as functional, cell-based.
Assay [2] has as its system MOLM-13. In words: Antiproliferative activity against IFN-gamma-treated human MOLM-13 cells incubated for 7 days by CellTiter-Glo assay. In kind it is functional, cell-based. The conditions noted are these: MOLM-13, 168 h.
Assay [3] deals with Kasumi 1. In words: Antiproliferative activity against IFN-gamma-treated human Kasumi 1 cells incubated for 6 days by CellTiter-Glo assay. Particulars: Kasumi 1, 144 h. In kind it is functional, cell-based.
In assay [4] the test system is NOMO-1. Nature of the assay: Antiproliferative activity against IFN-gamma-treated human NOMO-1 cells incubated for 6 days by CellTiter-Glo assay. In kind it is functional, cell-based. Particulars: NOMO-1, 144 h.
The test system of assay [5] is THP-1. In words: Antiproliferative activity against IFN-gamma-treated human THP-1 cells incubated for 7 days by CellTiter-Glo assay. In kind it is functional, cell-based. Particulars: THP-1, 168 h.
Assay [6] relates to KCL-22. In words: Antiproliferative activity against IFN-gamma-treated human KCL-22 cells incubated for 6 days by CellTiter-Glo assay. In kind it is functional, cell-based. The conditions noted are these: KCL-22, 144 h.
The target in assay [7] is N6-adenosine-methyltransferase catalytic subunit (Homo sapiens, UniProt Q86U44). Nature of the assay: Inhibition of METTL3 in human MOLM-13 cells assessed as reduction in m6A methylation level at 0.1 to 50 uM measured by NanoDrop spectrophotomery analysis. In kind it is cell-based. The conditions noted are these: dose 0.1-50 µM.
Sequence of N6-adenosine-methyltransferase catalytic subunit (Q86U44 whole entry): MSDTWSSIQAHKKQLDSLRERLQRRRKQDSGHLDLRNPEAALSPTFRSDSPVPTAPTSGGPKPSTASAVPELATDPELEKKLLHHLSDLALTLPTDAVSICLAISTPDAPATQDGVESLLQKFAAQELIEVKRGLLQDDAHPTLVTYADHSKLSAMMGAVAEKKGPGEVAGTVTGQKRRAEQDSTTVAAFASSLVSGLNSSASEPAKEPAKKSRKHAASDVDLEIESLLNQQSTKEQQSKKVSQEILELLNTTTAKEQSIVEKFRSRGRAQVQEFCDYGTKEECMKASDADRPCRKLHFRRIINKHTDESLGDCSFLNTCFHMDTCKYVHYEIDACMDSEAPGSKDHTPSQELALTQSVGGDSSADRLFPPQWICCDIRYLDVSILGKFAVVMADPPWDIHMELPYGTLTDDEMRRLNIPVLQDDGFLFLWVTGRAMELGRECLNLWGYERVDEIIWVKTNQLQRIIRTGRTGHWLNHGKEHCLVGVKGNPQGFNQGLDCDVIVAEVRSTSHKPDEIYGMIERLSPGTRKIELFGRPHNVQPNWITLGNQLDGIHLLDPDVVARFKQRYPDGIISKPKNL
Assay [8] has as its system Caov-3 cell line. In words: Antiproliferative activity against human Caov-3 cells incubated for 120 hrs by CellTiter-Glo assay. Particulars: Caov-3, 120 h. It counts as functional, cell-based.

In the case of `O=C(NCc1cn2cc(CNCc3ccccc3)ccc2n1)c1cc(=O)n2ccccc2n1`, the IC50 in assay [1] was found to be 3.59 µM; in assay [2], 0.847 µM; in assay [3], 1.89 µM; in assay [4], 6.55 µM; in assay [5], 2.12 µM; in assay [6], 14 µM.

Turning to `CC(C)(O)CNCc1ccc2nc(CNC(=O)c3cc(=O)n4ccccc4n3)cn2c1`, in assay [1], the concentration for half-maximal inhibition (IC50) came out at 30 µM.

In the case of `CN(Cc1ccccc1)Cc1ccc2nc(CNC(=O)c3cc(=O)n4ccccc4n3)cn2c1`, half-maximal inhibition in assay [1] (IC50) required 30 µM.

Molecule `COC(C)(C)CNCc1ccc2nc(CNC(=O)c3cc(=O)n4ccccc4n3)cn2c1` had an IC50 in assay [1] of 30 µM.

In assay [1], `NC(=O)c1cc(-c2cn(Cc3cn4cc(CNCC5CCC5)ccc4n3)nn2)c2cn[nH]c2c1` returned a half-inhibitory concentration (IC50) of 30 µM.

`O=C(NCc1cn2cc(CNCC3CC4(CC4)C3)ccc2n1)c1cc(=O)n2ccccc2n1` came in with an IC50 in assay [1] of 30 µM.

For `Cc1ccc2nc(CNC(=O)c3cc(=O)n4ccccc4n3)cn2c1`, in assay [7], the inhibition entry is “Active”.

On to `O=C(NCc1cn2cc(CNCCC3CC(F)(F)C3)ccc2n1)c1cc(=O)n2ccccc2n1`, for which, in assay [1], half-maximal inhibition (IC50) was put at 30 µM.

`CN(C)C(=O)c1cc(-c2cn(Cc3cn4cc(CNCC5CCC5)ccc4n3)nn2)c2cn[nH]c2c1` registered a half-inhibitory concentration (IC50) in assay [1] of 30 µM.

`O=C(NCc1cn2cc(CNCC34CC(C3)C4)ccc2n1)c1cc(=O)n2ccccc2n1`: the concentration for half-maximal inhibition (IC50) in assay [1] amounted to 1.33 µM; in assay [8] it was 0.296 µM.

`CC(C)(C)NCc1ccc2nc(CNC(=O)c3cc(=O)n4ccccc4n3)cn2c1` returned a 50% inhibitory concentration (IC50) in assay [1] of 30 µM.

`O=C(NCc1cn2cc(CNCCCc3ccccc3)ccc2n1)c1cc(=O)n2ccccc2n1`: in assay [1], the IC50 amounted to 4.64 µM.

The molecule `O=C(NCc1cn2cc(CNCCc3ccccc3)ccc2n1)c1cc(=O)n2ccccc2n1` showed an IC50 in assay [1] of 3.9 µM.

Molecule `O=C(O)c1cc(-c2cn(Cc3cn4cc(CNCC5CCC5)ccc4n3)nn2)c2cn[nH]c2c1` displayed an IC50 in assay [1] of 30 µM.

Molecule `O=C(NCc1cn2cc(CNC3CCC3)ccc2n1)c1cc(=O)n2ccccc2n1` gave an IC50 in assay [1] of 30 µM.

As for `O=C(NCc1cn2cc(CCNCc3ccccc3)ccc2n1)c1cc(=O)n2ccccc2n1`, the half-maximal inhibitory concentration (IC50) in assay [1] was found to be 30 µM.

For `N#CCC(NCC1CCC1)c1ccc2nc(CNC(=O)c3cc(=O)n4ccccc4n3)cn2c1` (stereo not given), half-maximal inhibition in assay [1] (IC50) was put at 30 µM.

Regarding `Oc1cc(-c2cn(Cc3cn4cc(CNCC5(O)CCC5)ccc4n3)nn2)c2cn[nH]c2c1`, the concentration for half-maximal inhibition (IC50) in assay [1] stood at 30 µM.

`O=C(c1cc(-c2cn(Cc3cn4cc(CNCC5CCC5)ccc4n3)nn2)c2cn[nH]c2c1)N1CCOCC1`: in assay [1], the 50% inhibitory concentration (IC50) was 30 µM.

(Values after ChEMBL document CHEMBL5393452, “Mettl3 inhibitory compounds” (2020).)
